The record followed here is patent publication US12447153B2, “HER2 mutation inhibitors” (Array BioPharma Inc., priority 2021, dated 2025).

The target of assay [1] is ErbB2 WT (Homo sapiens (Human), UniProt P04626). The assay can be described thus: ErbB Enzyme Assay (HTRF KinEASE-TK), Assay 2. The class given is biochemical. The procedure: (§1) The kinases were incubated with 250 nM TK-substrate biotin (CisBio, part of cat #62TKOPEC) at 1 mM ATP along with test compounds in a buffer consisting of 25 mM HEPES, pH 7.4, 10 mM MgCl2, 0.01% Triton X-100, and 2% DMSO in a volume of 8 μL. […] After 30-minute incubation at 22° C., the reaction was quenched by adding 8 μL of quench solution containing 62.5 nM Sa-XL665 and 0.25×TK-Ab-Cryptate in HTRF detection buffer (all from CisBio, part of cat #62TKOPEC).
A general note: TR-FRET usually uses a lanthanide donor and a delayed reading to cut background.

Assay [2] deals with EGFR (Homo sapiens (Human), UniProt P00533). The assay can be described thus: ErbB Enzyme Assay (HTRF KinEASE-TK), Assay 3. It counts as biochemical. The procedure: as §1, with “#62TKOPEC). […] A 4-parameter logistic curve was fit to the POC values as a function of the concentration of compound, and the IC50 value was the point where the best-fit curve crossed 50 POC.” for “#62TKOPEC).”

Assay [3] addresses ErbB2 with Exon 20 YVMA insertion (HER2-YVMA) (Homo sapiens (Human), UniProt P04626, INS775YVMA). Nature of the assay: Cellular Phosphorylation Assay, Assay 4 (constitutive ErbB2 phosphorylation, NIH 3T3 cells). It counts as cell-based. The procedure: (§2) NIH 3T3 cells were engineered to express ErbB2 with Exon 20 YVMA insertion (HER2-YVMA (SEQ ID NO: 2); Assay 4) or EGFR wild type (EGFR WT; Assay 5) with constructs obtained from GenScript and grown in DMEM supplemented with 10% fetal bovine serum and 15 μg/ml blasticidin. […] Serially diluted compounds were added to the plates for 1 hour at 37° C./5% CO2. EGFR WT cells were stimulated with 100 ng/ml rEGF for an additional 10 minutes at 37° C./5% CO2.
(§3) After compound incubation, medium was removed from the cells, which were then fixed in 3.7% formaldehyde in PBS at room temperature for 20 minutes. Following a wash with PBS, cells were permeabilized with 100% methanol at room temperature for 10 minutes. Cells were then washed with PBS/0.05% Tween-20 and blocked with Odyssey blocking buffer (LI-COR Biosciences) for at least 1 hour at room temperature. Antibodies to phosphorylated ErbB2 (Y1196, Cell Signaling #6942) or phosphorylated EGFR (Y1068, Cell Signaling #3777) and GAPDH (Millipore #MAB374) were added to the cells in blocking buffer containing 0.05% azide and incubated overnight at 4° C. After washing with PBS/0.05% Tween-20, the cells were incubated with fluorescently labeled secondary anti-rabbit antibody (LiCOR, IRDye 800CW #926-32211) and anti-mouse antibody (Molecular Probes, Alexa Fluor 680 #A21058) for 1 hour at room temperature in the dark. Cells were then washed and analyzed for fluorescence at both wavelengths using the Odyssey Infrared Imaging System (LI-COR Biosciences). Phosphorylated ErbB2 and EGFR signal was normalized to GAPDH signal to generate curves and calculate IC50 values.

The target of assay [4] is EGFR wild type (EGFR WT) (Homo sapiens (Human), UniProt P00533). The assay can be described thus: Cellular Phosphorylation Assay, Assay 5 (EGF-stimulated EGFR phosphorylation, NIH 3T3 cells). It counts as cell-based. Here is the method: as §2, §3
Setting [5] is: EGF-stimulated EGFR WT phosphorylation.
Where [6] appears, read: cellular ErbB2 YVMA phosphorylation.
Where [7] appears, read: cellular EGFR WT phosphorylation, EGF-stimulated.

Chain of ErbB2 WT (P04626 23-1255): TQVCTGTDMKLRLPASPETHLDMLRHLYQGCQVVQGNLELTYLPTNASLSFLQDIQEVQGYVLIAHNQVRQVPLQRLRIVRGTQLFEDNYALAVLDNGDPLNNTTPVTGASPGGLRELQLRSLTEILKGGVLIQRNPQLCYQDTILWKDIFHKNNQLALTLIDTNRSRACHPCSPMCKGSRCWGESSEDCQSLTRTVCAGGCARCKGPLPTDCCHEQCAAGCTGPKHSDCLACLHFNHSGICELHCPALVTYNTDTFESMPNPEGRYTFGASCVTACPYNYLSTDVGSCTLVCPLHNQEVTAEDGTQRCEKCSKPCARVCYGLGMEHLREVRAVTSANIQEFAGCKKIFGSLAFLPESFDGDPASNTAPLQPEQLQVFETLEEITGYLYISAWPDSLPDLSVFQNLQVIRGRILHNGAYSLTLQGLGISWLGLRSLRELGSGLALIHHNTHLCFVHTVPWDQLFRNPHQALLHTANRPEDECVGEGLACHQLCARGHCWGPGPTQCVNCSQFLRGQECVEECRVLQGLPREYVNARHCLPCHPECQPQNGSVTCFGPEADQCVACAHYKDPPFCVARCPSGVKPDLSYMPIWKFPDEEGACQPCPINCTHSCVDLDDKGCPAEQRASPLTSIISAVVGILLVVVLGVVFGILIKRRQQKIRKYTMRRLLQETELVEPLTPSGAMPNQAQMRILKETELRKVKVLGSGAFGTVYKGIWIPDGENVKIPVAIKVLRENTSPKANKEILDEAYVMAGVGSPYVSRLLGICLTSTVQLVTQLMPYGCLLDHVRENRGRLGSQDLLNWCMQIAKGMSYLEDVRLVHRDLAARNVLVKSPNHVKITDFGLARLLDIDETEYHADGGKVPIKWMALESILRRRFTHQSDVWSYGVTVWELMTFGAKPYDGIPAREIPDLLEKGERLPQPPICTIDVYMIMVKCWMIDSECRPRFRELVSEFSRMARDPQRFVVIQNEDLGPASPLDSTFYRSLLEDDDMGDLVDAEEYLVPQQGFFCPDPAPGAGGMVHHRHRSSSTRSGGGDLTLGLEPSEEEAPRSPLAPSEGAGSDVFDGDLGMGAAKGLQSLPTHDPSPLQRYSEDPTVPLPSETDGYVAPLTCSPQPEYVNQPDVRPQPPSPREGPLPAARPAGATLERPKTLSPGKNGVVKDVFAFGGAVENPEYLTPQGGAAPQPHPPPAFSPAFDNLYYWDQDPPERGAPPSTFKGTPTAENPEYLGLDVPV
Chain of EGFR wild type (EGFR WT) (P00533 25-1210): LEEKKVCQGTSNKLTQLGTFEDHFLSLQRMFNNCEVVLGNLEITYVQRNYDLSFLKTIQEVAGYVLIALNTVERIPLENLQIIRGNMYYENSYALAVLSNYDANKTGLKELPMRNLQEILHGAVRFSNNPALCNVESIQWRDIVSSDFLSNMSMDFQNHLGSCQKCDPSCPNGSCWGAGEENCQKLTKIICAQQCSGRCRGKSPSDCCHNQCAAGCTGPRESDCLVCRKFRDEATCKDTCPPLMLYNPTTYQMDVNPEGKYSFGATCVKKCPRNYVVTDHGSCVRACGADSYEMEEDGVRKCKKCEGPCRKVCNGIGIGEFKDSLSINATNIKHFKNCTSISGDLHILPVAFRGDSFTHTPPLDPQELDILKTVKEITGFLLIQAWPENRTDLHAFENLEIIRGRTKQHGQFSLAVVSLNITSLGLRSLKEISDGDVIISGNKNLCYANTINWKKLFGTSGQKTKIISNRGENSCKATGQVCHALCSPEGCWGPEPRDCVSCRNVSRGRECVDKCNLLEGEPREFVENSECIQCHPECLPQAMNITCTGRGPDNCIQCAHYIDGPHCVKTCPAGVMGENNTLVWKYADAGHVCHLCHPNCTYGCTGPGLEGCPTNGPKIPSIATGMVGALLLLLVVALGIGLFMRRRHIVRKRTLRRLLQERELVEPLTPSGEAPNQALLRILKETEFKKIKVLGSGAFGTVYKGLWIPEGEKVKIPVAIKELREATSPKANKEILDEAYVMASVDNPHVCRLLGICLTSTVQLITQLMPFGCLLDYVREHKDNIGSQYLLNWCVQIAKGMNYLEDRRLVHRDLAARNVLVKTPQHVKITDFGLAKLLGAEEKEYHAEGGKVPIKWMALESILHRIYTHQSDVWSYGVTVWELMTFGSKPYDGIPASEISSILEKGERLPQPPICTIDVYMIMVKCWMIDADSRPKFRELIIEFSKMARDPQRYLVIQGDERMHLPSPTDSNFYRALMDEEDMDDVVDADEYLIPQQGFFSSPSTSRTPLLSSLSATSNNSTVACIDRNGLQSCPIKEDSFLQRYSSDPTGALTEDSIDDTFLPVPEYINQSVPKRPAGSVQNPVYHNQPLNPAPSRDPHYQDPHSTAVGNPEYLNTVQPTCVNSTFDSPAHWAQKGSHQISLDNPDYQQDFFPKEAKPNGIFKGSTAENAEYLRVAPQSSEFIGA
Chain of EGFR (P00533 25-1210): as above
Chain of ErbB2 with Exon 20 YVMA insertion (HER2-YVMA) (P04626 other isoform, or with tags, fused parts or gaps ins YVMA behind 775): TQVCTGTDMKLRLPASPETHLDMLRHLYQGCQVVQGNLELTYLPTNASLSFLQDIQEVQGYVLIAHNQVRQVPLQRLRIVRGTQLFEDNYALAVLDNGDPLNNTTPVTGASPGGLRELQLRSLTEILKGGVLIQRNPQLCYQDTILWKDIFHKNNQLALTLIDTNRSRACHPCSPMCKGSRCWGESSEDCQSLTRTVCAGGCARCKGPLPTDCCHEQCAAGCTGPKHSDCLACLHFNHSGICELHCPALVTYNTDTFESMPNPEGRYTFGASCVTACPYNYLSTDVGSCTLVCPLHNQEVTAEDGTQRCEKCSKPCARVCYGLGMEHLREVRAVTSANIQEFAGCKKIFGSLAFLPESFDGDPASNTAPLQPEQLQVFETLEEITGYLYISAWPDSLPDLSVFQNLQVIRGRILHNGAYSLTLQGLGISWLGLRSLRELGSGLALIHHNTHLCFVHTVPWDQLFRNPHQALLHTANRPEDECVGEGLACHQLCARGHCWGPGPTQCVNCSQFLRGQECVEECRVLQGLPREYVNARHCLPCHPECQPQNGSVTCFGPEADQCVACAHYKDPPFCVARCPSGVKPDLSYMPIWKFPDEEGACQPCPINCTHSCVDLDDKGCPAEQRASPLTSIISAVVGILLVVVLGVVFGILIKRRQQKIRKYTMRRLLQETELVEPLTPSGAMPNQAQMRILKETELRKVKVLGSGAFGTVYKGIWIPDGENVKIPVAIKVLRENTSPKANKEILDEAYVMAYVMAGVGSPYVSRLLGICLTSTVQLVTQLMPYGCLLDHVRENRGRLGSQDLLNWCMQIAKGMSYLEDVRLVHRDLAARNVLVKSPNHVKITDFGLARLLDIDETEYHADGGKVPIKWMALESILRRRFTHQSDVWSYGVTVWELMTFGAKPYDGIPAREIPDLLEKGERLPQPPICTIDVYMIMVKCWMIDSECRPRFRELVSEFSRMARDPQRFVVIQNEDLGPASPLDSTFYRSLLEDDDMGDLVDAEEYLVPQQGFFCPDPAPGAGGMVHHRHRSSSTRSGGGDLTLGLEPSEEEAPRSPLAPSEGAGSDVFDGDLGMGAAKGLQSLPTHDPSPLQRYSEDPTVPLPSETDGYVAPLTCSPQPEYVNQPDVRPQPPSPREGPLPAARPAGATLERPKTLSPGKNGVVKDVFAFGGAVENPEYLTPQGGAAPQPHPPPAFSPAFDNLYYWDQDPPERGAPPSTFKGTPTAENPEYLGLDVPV

One may read the IC50 as the concentration at which inhibition is half-maximal. As to `C=CC(=O)N1CCC(Oc2ccc3ncnc(Nc4cc(Cl)c(Oc5ccc6cn(C)nc6c5)cc4F)c3n2)CC1` [Example 4, 1-(4-((4-((5-chloro-2-fluoro-4-((2-methyl-2H-indazol-6-yl)oxy)phenyl)amino)pyrido[3,2-d]pyrimidin-6-yl)oxy)piperidin-1-yl)prop-2-en-1-one], the IC50 in assay [1] (ErbB2 WT enzyme) was 0.876 µM; in assay [2] (EGFR enzyme) it was not below 10 µM; in assay [3] (ErbB2 YVMA phosphorylation), 0.392 µM; in assay [4] (setting [5]) it was not below 5 µM.

Regarding `C=CC(=O)N1CC(Cc2ccc3ncnc(Nc4ccc(Oc5ccn6ncnc6c5)c(C)c4F)c3n2)C1` [Example 298], the IC50 in assay [1] (ErbB2 WT enzyme assay) was determined as 0.0365 µM; in assay [2] (EGFR enzyme assay) it was 0.255 µM; in assay [3] (setting [6]), 0.0299 µM; in assay [4] (setting [7]), 0.902 µM.

For the compound `C=CC(=O)N1CCN(c2ccc3ncnc(Nc4ccc(Oc5ccn6ncnc6c5)c(C(F)(F)F)c4)c3n2)CC1(C)C` [Example 242, 1-(4-(4-((4-([1,2,4]triazolo[1,5-a]pyridin-7-yloxy)-3-(trifluoromethyl)phenyl)amino)pyrido[3,2-d]pyrimidin-6-yl)-2,2-dimethylpiperazin-1-yl)prop-2-en-1-one], the IC50 in assay [1] (ErbB2 WT enzyme) was 0.184 µM; in assay [2] (EGFR enzyme) it was 4.43 µM; in assay [3] (ErbB2 YVMA phosphorylation), 0.0956 µM; in assay [4] (setting [5]), 3.46 µM.

For `C=CC(=O)N1C[C@H]2CC[C@H](c3ccc4ncnc(Nc5ccc(Oc6ccn7ncnc7c6)c(C)c5)c4n3)[C@H]2C1` [Example 409], the IC50 in assay [1] (ErbB2 WT enzyme assay) is 0.0431 µM; in assay [2] (EGFR enzyme assay) it was 1.97 µM; in assay [3] (setting [6]) it was 0.0346 µM; in assay [4] (setting [7]), not below 5 µM.

For `C=CC(=O)N1CCC(Sc2ccc3ncnc(Nc4ccc(Oc5ccn6ncnc6c5)c(Cl)c4F)c3n2)CC1` [Example 62, 1-(4-((4-((4-([1,2,4]triazolo[1,5-a]pyridin-7-yloxy)-3-chloro-2-fluorophenyl)amino)pyrido[3,2-d]pyrimidin-6-yl)thio)piperidin-1-yl)prop-2-en-1-one], the IC50 in assay [1] (ErbB2 WT enzyme) amounted to 0.0153 µM; in assay [2] (EGFR enzyme), 0.333 µM; in assay [3] (ErbB2 YVMA phosphorylation), 0.0281 µM; in assay [4] (setting [5]), 0.639 µM.

`C=CC(=O)N1C[C@H]2CC[C@@H]1CN2c1ccc2ncnc(Nc3cc(Cl)c(Oc4ccn5ncnc5c4)cc3F)c2n1` [Example 330]: the IC50 is 0.239 µM in assay [1] (ErbB2 WT enzyme assay), not below 10 µM in assay [2] (EGFR enzyme assay), 0.241 µM in assay [3] (setting [6]) and not below 5 µM in assay [4] (setting [7]).

With `C=CC(=O)N1CC[C@H](c2ccc3ncnc(Nc4ccc(Oc5ccn6ncnc6c5)c(C)c4F)c3n2)CC12CC2` (single isomer, unassigned) [Example 174], the IC50 stood at 0.0238 µM in assay [1] (ErbB2 WT enzyme), 0.736 µM in assay [2] (EGFR enzyme), 0.0079 µM in assay [3] (ErbB2 YVMA phosphorylation) and 0.27 µM in assay [4] (setting [5]).

Turning to `C=CC(=O)N1CCCN(c2nc3c(Nc4ccc(Oc5ccn6ncnc6c5)c(Cl)c4F)ncnc3cc2OC)CC1` [Example 153, 1-(4-(4-((4-([1,2,4]triazolo[1,5-a]pyridin-7-yloxy)-3-chloro-2-fluorophenyl)amino)-7-methoxypyrido[3,2-d]pyrimidin-6-yl)-1,4-diazepan-1-yl)prop-2-en-1-one], the IC50 came out at 0.004 µM in assay [1] (ErbB2 WT enzyme), 0.265 µM in assay [2] (EGFR enzyme), 0.0383 µM in assay [3] (ErbB2 YVMA phosphorylation) and 1.79 µM in assay [4] (setting [5]).

As for `C=CC(=O)N1C[C@@H](c2ccc3ncnc(Nc4cc(C)c(Oc5ccn6ncnc6c5)cc4F)c3n2)C[C@@H]1C` (mixture of isomers) [Example 384], the IC50 was 0.101 µM in assay [1] (ErbB2 WT enzyme assay), 3 µM in assay [2] (EGFR enzyme assay), 0.0583 µM in assay [3] (setting [6]) and not below 5 µM in assay [4] (setting [7]).

As for `C=CC(=O)N1CCN(c2ccc3ncnc(Nc4ccc(Oc5ccn6ncnc6c5)c(C)c4F)c3n2)C[C@@H]1C(C)C` [Example 266], the IC50 in assay [1] (ErbB2 WT enzyme assay) was 0.178 µM; in assay [2] (EGFR enzyme assay) it was not below 10 µM; in assay [3] (setting [6]) it was 0.0912 µM; in assay [4] (setting [7]) it was not below 5 µM.

As to `C=CC(=O)N1CCC(Oc2ccc3ncnc(Nc4cc(C)c(Oc5ccc6cn(C)nc6c5)cc4F)c3n2)CC1` [Example 5, 1-(4-((4-((2-fluoro-5-methyl-4-((2-methyl-2H-indazol-6-yl)oxy)phenyl)amino)pyrido[3,2-d]pyrimidin-6-yl)oxy)piperidin-1-yl)prop-2-en-1-one], the IC50 is 2.34 µM in assay [1] (ErbB2 WT enzyme), not below 10 µM in assay [2] (EGFR enzyme), 0.407 µM in assay [3] (ErbB2 YVMA phosphorylation) and not below 5 µM in assay [4] (setting [5]).

Consider `C=CC(=O)N1C[C@@H]2C[C@H](c3ccc4ncnc(Nc5cc(C)c(Oc6ccn7ncnc7c6)cc5F)c4n3)C[C@H]1C2` [Example 390], for which the IC50 stood at 0.0681 µM in assay [1] (ErbB2 WT enzyme assay), 2.21 µM in assay [2] (EGFR enzyme assay), 0.0302 µM in assay [3] (setting [6]) and 1.25 µM in assay [4] (setting [7]).

Turning to `C=CC(=O)N1CCN(c2ccc3ncnc(Nc4ccc(Oc5ccn6ncnc6c5)c(Cl)c4F)c3n2)C[C@@H]1C(F)(F)F` [Example 86, (R)-1-(4-(4-((4-([1,2,4]triazolo[1,5-a]pyridin-7-yloxy)-3-chloro-2-fluorophenyl)amino)pyrido[3,2-d]pyrimidin-6-yl)-2-(trifluoromethyl)piperazin-1-yl)prop-2-en-1-one], the IC50 in assay [1] (ErbB2 WT enzyme) was 0.0023 µM; in assay [2] (EGFR enzyme), 0.03 µM; in assay [3] (ErbB2 YVMA phosphorylation) it was 0.0057 µM; in assay [4] (setting [5]) it was 0.0454 µM.

For the compound `C=CC(=O)N1CCC(c2ccc3ncnc(Nc4ccc(Oc5ccc6c(c5)ncn6C)c(C)c4)c3n2)C(C)C1` (stereo not drawn) [Example 125, 1-((3RS,4R*)3-methyl-4-(4-((3-methyl-4-((1-methyl-1H-benzo[d]imidazol-5-yl)oxy)phenyl)amino)pyrido[3,2-d]pyrimidin-6-yl)piperidin-1-yl)prop-2-en-1-one], the IC50 was 0.0482 µM in assay [1] (ErbB2 WT enzyme), 7.48 µM in assay [2] (EGFR enzyme), 0.04 µM in assay [3] (ErbB2 YVMA phosphorylation) and not below 5 µM in assay [4] (setting [5]).

On to `C=CC(=O)N1C[C@H]2CC[C@@H]1[C@@H](c1ccc3ncnc(Nc4ccc(Oc5ccn6ncnc6c5)c(C)c4F)c3n1)C2` [Example 398], for which the IC50 was 0.0154 µM in assay [1] (ErbB2 WT enzyme assay), 0.736 µM in assay [2] (EGFR enzyme assay), 0.074 µM in assay [3] (setting [6]) and not below 5 µM in assay [4] (setting [7]).

Consider `C=CC(=O)N1CCN(c2ccc3ncnc(Nc4cc(Cl)c(Oc5ccn6ncnc6c5)cc4F)c3n2)C[C@H]1COC` [Example 345], for which the IC50 in assay [1] (ErbB2 WT enzyme assay) was 0.0094 µM; in assay [2] (EGFR enzyme assay) it was 0.174 µM; in assay [3] (setting [6]) it was 0.0051 µM; in assay [4] (setting [7]), 0.115 µM.

Regarding `C=CC(=O)N1C[C@H]2CC[C@H](c3ccc4ncnc(Nc5cc(C)c(Oc6ccn7ncnc7c6)cc5F)c4n3)[C@H]2C1` [Example 410], the IC50 in assay [1] (ErbB2 WT enzyme assay) is 0.12 µM; in assay [2] (EGFR enzyme assay) it was 3.67 µM; in assay [3] (setting [6]), 0.0827 µM; in assay [4] (setting [7]), not below 5 µM.

As to `CC#CC(=O)N1CCN(c2ccc3ncnc(Nc4ccc(Oc5ccn6ncnc6c5)c(Cl)c4F)c3n2)C[C@H]1C` [Example 178, (R)-1-(4-(4-((4-([1,2,4]triazolo[1,5-a]pyridin-7-yloxy)-3-chloro-2-fluorophenyl)amino)pyrido[3,2-d]pyrimidin-6-yl)-2-methylpiperazin-1-yl)but-2-yn-1-one], the IC50 in assay [1] (ErbB2 WT enzyme) stood at 0.008 µM; in assay [2] (EGFR enzyme), 0.443 µM; in assay [3] (ErbB2 YVMA phosphorylation), 0.0277 µM; in assay [4] (setting [5]), 0.437 µM.

For `C=CC(=O)N1C[C@H]2CC[C@H](c3ccc4ncnc(Nc5ccc(Oc6ccn7ncnc7c6)c(C)c5F)c4n3)[C@H]2C1` [Example 411], the IC50 in assay [1] (ErbB2 WT enzyme assay) stood at 0.0449 µM; in assay [2] (EGFR enzyme assay), 0.598 µM; in assay [3] (setting [6]) it was 0.0352 µM; in assay [4] (setting [7]) it was 1.44 µM.
